Legend:
hardwood trees [1] = experiment: Growth Response for Post-Plant Treatments (Example 8), summary over treated species; format: in vivo; settings: post-plant (Table 8); all treated species except for Chinese chestnut
Protocol: (§1) Hybrid poplar seedlings were planted as stem cuttings.
(§2) Stem volume index is calculated as D^2H where D=groundline stem diameter and H=total height.

hardwood trees [2] = experiment: Growth Response for Pre-Plant Treatments (Example 7), summary over treated species; format: in vivo; settings: pre-plant (Table 7); all treated species, with the exceptions of chestnut oak and Chinese chestnut
Protocol: as §1, §2

SMILES: Cc1ccc2c(c1)[C@H](Nc1nc(N)nc(C(C)F)n1)[C@@H](C)C2 (mixture of isomers) [indaziflam, N2-[(1R,2S)-2,3-dihydro-2,6-dimethyl-1H-inden-1-yl]-6-[(1RS)-1-fluoroethyl]-1,3,5-triazine-2,4-diamine]
- growth response (hardwood trees [1]): positive growth response
- growth response (hardwood trees [2]): positive growth response

From patent US20190380346A1, “METHOD OF IMPROVING HEALTH AND ROOTING OF HARDWOOD TREES” (Bayer CropScience LP, priority 2018, published 2019)
